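In this assay, cells in 96-well plates receive the compound at five concentrations for 48 hours. Endpoints are linearly interpolated between the surrounding concentrations. At the GI50, growth is halved.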 The source made the active and inactive calls. No stated cut-off is given here; in the data, active = GI50 up to about 1.1 µM and inactive = higher.
How the values were obtained:
Assay in all cases: NCI-60 cell line screen, 48 h
MDA-N = test system: MDA-N
SNB-75 = test system: SNB-75
MDA-MB-231 = test system: MDA-MB-231
MDA-MB-435 = test system: MDA-MB-435
PC-3 = test system: PC-3
A498 = test system: A498
UACC-62 = test system: UACC-62
DU-145 = test system: DU-145
MCF7 = test system: MCF7
UACC-257 = test system: UACC-257
NCI/ADR-RES = test system: NCI/ADR-RES
Malme-3M = test system: Malme-3M
NCI-H23 = test system: NCI-H23
K562 = test system: K562
MOLT-4 = test system: MOLT-4
NCI-H226 = test system: NCI-H226

| SMILES | GI50 (MDA-N) | GI50 (SNB-75) | GI50 (MDA-MB-231) | GI50 (MDA-MB-435) | GI50 (PC-3) | GI50 (A498) | GI50 (UACC-62) | GI50 (DU-145) | GI50 (MCF7) | GI50 (UACC-257) | GI50 (NCI/ADR-RES) | GI50 (Malme-3M) | GI50 (NCI-H23) | GI50 (K562) | GI50 (MOLT-4) | GI50 (NCI-H226) |
| --- | --- | --- | --- | --- | --- | --- | --- | --- | --- | --- | --- | --- | --- | --- | --- | --- |
| C=C(Br)CN(C)CC(=C)Br | > 100 µM (inactive) | > 100 µM (inactive) | > 100 µM (inactive) | > 100 µM (inactive) | > 100 µM (inactive) | > 100 µM (inactive) | > 100 µM (inactive) | > 100 µM (inactive) | > 100 µM (inactive) | > 100 µM (inactive) | > 100 µM (inactive) | > 100 µM (inactive) | > 100 µM (inactive) | > 100 µM (inactive) | > 100 µM (inactive) |  |
| COc1ccc(CCn2ccc(C)n2)c(OC)c1 | > 100 µM (inactive) | 34 µM (inactive) | > 100 µM (inactive) | > 100 µM (inactive) | > 100 µM (inactive) |  | 90.8 µM (inactive) | > 100 µM (inactive) | > 100 µM (inactive) | > 100 µM (inactive) | 90.2 µM (inactive) | > 100 µM (inactive) | > 100 µM (inactive) | > 100 µM (inactive) | > 100 µM (inactive) |  |
| CC/C=C(\C(=C/CC)[N+](=O)[O-])[N+](=O)[O-] | 22.8 µM (inactive) | > 100 µM (inactive) | 21 µM (inactive) | 16.8 µM (inactive) | 33.1 µM (inactive) |  | 18 µM (inactive) | 21.3 µM (inactive) | 16.7 µM (inactive) | 17.1 µM (inactive) | 20.7 µM (inactive) |  | 18.9 µM (inactive) | 30.3 µM (inactive) | 42.7 µM (inactive) | 95.5 µM (inactive) |
| O=C(Nc1nc2c(=O)[nH]cnc2s1)c1ccccc1 |  | 44.2 µM (inactive) |  | 88.5 µM (inactive) | > 100 µM (inactive) | 83.4 µM (inactive) | > 100 µM (inactive) | 73.1 µM (inactive) | 45.6 µM (inactive) | > 100 µM (inactive) | > 100 µM (inactive) | > 100 µM (inactive) | > 100 µM (inactive) | 62.5 µM (inactive) |  | > 100 µM (inactive) |
| Cc1ccc(S(=O)(=O)N(c2ccccc2F)C2CCCCC2O)cc1 (configuration not stated) | 19.9 µM (inactive) | 20 µM (inactive) | 77.6 µM (inactive) | 19.4 µM (inactive) | 35.4 µM (inactive) | 38.1 µM (inactive) | 46.9 µM (inactive) | 24.9 µM (inactive) | 21.7 µM (inactive) | 0.214 µM (active) | 42.4 µM (inactive) | 58.7 µM (inactive) | 34.4 µM (inactive) | 42.2 µM (inactive) |  | > 100 µM (inactive) |
| O=C1OC(c2ccccc2Br)=N/C1=C/c1ccccc1 | 25.4 µM (inactive) | 53.5 µM (inactive) | 40.7 µM (inactive) | 29.2 µM (inactive) | > 100 µM (inactive) | > 100 µM (inactive) | 37.1 µM (inactive) | > 100 µM (inactive) | 57.1 µM (inactive) | > 100 µM (inactive) |  | 19.6 µM (inactive) | 32.8 µM (inactive) | 63 µM (inactive) | 48.8 µM (inactive) | 18.8 µM (inactive) |
| CC1C2CC(C(C3C(=O)C4CC3C(C)(C)C4C)C2=O)C1(C)C (configuration not stated) | > 100 µM (inactive) | > 100 µM (inactive) | > 100 µM (inactive) | > 100 µM (inactive) | > 100 µM (inactive) | > 100 µM (inactive) | > 100 µM (inactive) | > 100 µM (inactive) | > 100 µM (inactive) | > 100 µM (inactive) |  | > 100 µM (inactive) | > 100 µM (inactive) | > 100 µM (inactive) | > 100 µM (inactive) | > 100 µM (inactive) |
| CC1(C)C2CCC1(C)[C@H](O)[C@H]2Nc1cc(C(F)(F)F)cc(C(F)(F)F)c1 (some centres not stated) |  | 0.0252 µM (active) | 4.53 µM (inactive) | 3.42 µM (inactive) | 2.47 µM (inactive) | > 100 µM (inactive) | > 100 µM (inactive) | 3.66 µM (inactive) | > 100 µM (inactive) | 3.78 µM (inactive) | 3.07 µM (inactive) | 3.27 µM (inactive) | 2.36 µM (inactive) | 2.79 µM (inactive) | 2.19 µM (inactive) | 6.5 µM (inactive) |
| O=C(NS(=O)(=O)OCC(Cl)(Cl)Cl)SCCC(F)(F)C(F)(F)C(F)(F)C(F)(F)C(F)(F)C(F)(F)F |  | 23.1 µM (inactive) | 25.4 µM (inactive) | 23.8 µM (inactive) | 16.5 µM (inactive) | 31 µM (inactive) | 18.8 µM (inactive) | 46.9 µM (inactive) | 20 µM (inactive) | 35.5 µM (inactive) | 20.2 µM (inactive) | 17.9 µM (inactive) | 20.1 µM (inactive) | 28.6 µM (inactive) | 29 µM (inactive) | 25.9 µM (inactive) |
| CC1=CCC2CC1C(C(=O)c1c[nH]c3ccccc13)=NC2(C)C (configuration not stated) | > 10 µM (inactive) |  | 51.9 µM (inactive) | 47.8 µM (inactive) | 30.8 µM (inactive) | > 100 µM (inactive) | 25.2 µM (inactive) | > 100 µM (inactive) | 54.6 µM (inactive) | 27.4 µM (inactive) | 59.3 µM (inactive) | > 100 µM (inactive) | 87.7 µM (inactive) | 34 µM (inactive) | 22.9 µM (inactive) | > 100 µM (inactive) |
| O=c1cnn(C/C=C\CO)c(=O)[nH]1 | > 100 µM (inactive) | > 100 µM (inactive) | > 100 µM (inactive) | > 100 µM (inactive) | > 100 µM (inactive) | > 100 µM (inactive) |  | > 100 µM (inactive) | > 100 µM (inactive) | > 100 µM (inactive) | > 100 µM (inactive) | > 100 µM (inactive) | > 100 µM (inactive) | > 100 µM (inactive) |  | > 100 µM (inactive) |
| CSCCC(NC(=O)OCc1ccccc1)NC(=O)OCc1ccccc1 | > 100 µM (inactive) | > 100 µM (inactive) | > 100 µM (inactive) | > 100 µM (inactive) | > 100 µM (inactive) |  |  | > 100 µM (inactive) |  | > 100 µM (inactive) | > 100 µM (inactive) |  | > 100 µM (inactive) | > 100 µM (inactive) | > 100 µM (inactive) | > 100 µM (inactive) |
| CC(Cc1ccc2c(c1)OCO2)N(C)C(=O)C1=CCN(C)CC1 (configuration not stated) | > 100 µM (inactive) | 46.2 µM (inactive) | > 100 µM (inactive) | > 100 µM (inactive) | > 100 µM (inactive) |  | > 100 µM (inactive) | > 100 µM (inactive) | > 100 µM (inactive) | > 100 µM (inactive) | > 100 µM (inactive) | > 100 µM (inactive) | > 100 µM (inactive) | > 100 µM (inactive) | > 100 µM (inactive) | > 100 µM (inactive) |
| CCC(Sc1cc(Cl)c(C)cc1S(=O)(=O)Nc1nc(N)nc(N(C)C)n1)C(=O)O (configuration not stated) | > 10 µM (inactive) | > 10 µM (inactive) |  |  | > 10 µM (inactive) | > 10 µM (inactive) |  | > 10 µM (inactive) | > 10 µM (inactive) | > 10 µM (inactive) | > 10 µM (inactive) | > 10 µM (inactive) | > 10 µM (inactive) | > 10 µM (inactive) | > 10 µM (inactive) | > 10 µM (inactive) |
| COc1ccc(NC2Oc3cc4c(cc3C(c3cc(OC)c(O)c(OC)c3)C2C)OCO4)cc1 (configuration not stated) | 1.36 µM (inactive) | 2.11 µM (inactive) | 2.65 µM (inactive) | 0.406 µM (active) | 4.13 µM (inactive) | 6.79 µM (inactive) | 2.74 µM (inactive) | 7.4 µM (inactive) | 5.71 µM (inactive) | 15.1 µM (inactive) | 5.66 µM (inactive) | 5.38 µM (inactive) | 11.2 µM (inactive) | 2.69 µM (inactive) |  | 38.3 µM (inactive) |
| NC(=O)c1oc([N+](=O)[O-])c(-c2ccccc2)c1-c1ccccc1 |  | 65.9 µM (inactive) | 13.5 µM (inactive) | 14.9 µM (inactive) | 15.5 µM (inactive) |  | 8.65 µM (inactive) | 26.9 µM (inactive) | 29.5 µM (inactive) | 18 µM (inactive) | 19.4 µM (inactive) | 3.49 µM (inactive) | 15.4 µM (inactive) | 14.6 µM (inactive) | 17.1 µM (inactive) | 11 µM (inactive) |
| CC(=O)N(C)SCC(NC(=O)C(Cc1ccccc1)NC(=O)OCc1ccccc1)C(=O)NC(Cc1ccccc1)C(=O)NC(Cc1cn(C=O)c2ccccc12)C(=O)NC(CCCCNC(=O)OCc1ccccc1)C(=O)NC(C(=O)NC(CSN(C)C(C)=O)C(=O)NO)C(C)OCc1ccccc1 (configuration not stated) | > 100 µM (inactive) | > 100 µM (inactive) | > 100 µM (inactive) | > 100 µM (inactive) | > 100 µM (inactive) |  | > 100 µM (inactive) | > 100 µM (inactive) | > 100 µM (inactive) | > 100 µM (inactive) | > 100 µM (inactive) | > 100 µM (inactive) | > 100 µM (inactive) | > 100 µM (inactive) | > 100 µM (inactive) | > 100 µM (inactive) |
| CCOC(=O)N/N=C(/N)Cc1ccccc1 | > 100 µM (inactive) | > 100 µM (inactive) | > 100 µM (inactive) | > 100 µM (inactive) | > 100 µM (inactive) | > 100 µM (inactive) | > 100 µM (inactive) | > 100 µM (inactive) | > 100 µM (inactive) | > 100 µM (inactive) | > 100 µM (inactive) | > 100 µM (inactive) |  | > 100 µM (inactive) | > 100 µM (inactive) |  |
| O=S(=O)(N/C(=N\O)Nc1ccc(Cl)cc1)c1cc2ccccc2s1 | 20.9 µM (inactive) | 12.7 µM (inactive) | 17.3 µM (inactive) | 16.6 µM (inactive) | 14.5 µM (inactive) |  | 15.3 µM (inactive) | 20.9 µM (inactive) |  | 22 µM (inactive) | 20.2 µM (inactive) | 15.6 µM (inactive) | 16 µM (inactive) | 27.9 µM (inactive) | 16.2 µM (inactive) | 15.4 µM (inactive) |
